The text below walks through data of paper PMC4109680, “Identification and Preclinical Pharmacology of the γ-Secretase Modulator BMS-869780” (International Journal of Alzheimer's Disease, 2014).

SMILES strings stand for the structures.

For one assay, the system named is rat brain Aβ. The assay is described as follows: Rat brain Aβ peptides after oral dose (4-plex immunoassay and Aβ1-x). The format is in vivo. To be noted: 10 mg/kg, 5 hours. The procedure:
(§1) IC50 determinations for Aβ1-42 and Aβ1-40 in H4-APPsw cultures in 384-well format were determined using homogeneous time-resolved fluorescence immunoassays as previously described. The principle of these assays is illustrated in Figures 1(c) and 1(d). In other experiments using H4-APPsw cultures, Aβ was quantified by ELISA; for Aβ1-42 the combination of monoclonal antibodies was 26D6 and 565-HRP; for Aβ1-40 it was TSD and 26D6-HRP, and for Aβ1-x it was 4G8 and 26D6-HRP. In some experiments a novel 4-plex Aβ electrochemiluminescence immunoassay was used (Mesoscale Discovery catalog number N45ZA-1). Briefly, the 4-plex was carried out in 96-well format, with 4 separate spots of capture antibodies in each well. The 96-well plates were prepared by the manufacturer, with spots of monoclonal antibodies for Aβ1-42, Aβ1-40, and Aβ1-38, and an additional fourth spot of streptavidin in each well. Plates were initially incubated with blocking buffer (5% BSA in phosphate buffered saline, 200 μL per well) for 2 hours at ambient temperature and then with D2A6H-biotin conjugate (50 ng/mL in 1% BSA, phosphate buffered saline, 25 μL per well) for 1 hour. Plates were then rinsed with phosphate buffered saline before addition of experimental samples for determination of Aβ1-42, Aβ1-40, Aβ1-38, and Aβ1-37 levels, following the manufacturer's instructions as for the Aβ 3-plex kit (catalog number K15148E-1). Rat brain extracts for use in the 4-plex assay were made in 0.2% diethylamine, as previously described. For detection of rat Aβ peptides in the 4-plex (Figure 5), 252Q6-sulfo-tag conjugate was used, and for detection of human Aβ peptides from cell cultures 6E10-sulfo-tag conjugate was used. For Aβ in transiently transfected PS1/PS2 dKO fibroblasts, Aβ1-42 was quantified using an ELISA kit (WACO), and Aβ1-40 was quantified by ELISA as described above for H4-APPsw cultures. For triple transgenic mice (3xTg; [63]), human transgenic Aβ1-42 was assayed in brain homogenates using an ELISA kit (WACO). For the rat and mouse experiments illustrated in Figures 7 and 8, brain samples were prepared by solid phase extraction, and endogenous rat brain Aβ1-42 and Aβ1-40 were quantified by ELISA as previously described for wild type mice. For brain extracts made using solid phase extraction, calibration of Aβ was relative, based on the approximately linear response of the assay in the range tested. For brain extracts made in 0.2% diethylamine, Aβ1-42, Aβ1-40, Aβ1-38, and Aβ1-37 concentrations in brain and cell culture samples were determined by fitting the results of immunoassays against calibration curves derived from a range of dilutions of the corresponding synthetic peptides on each assay plate using a quadratic curve fit (Graphpad Prizm 5.0). Aβ1-x was calibrated in the same way against synthetic Aβ1-40 peptide. Results were expressed in units of pM, corrected for sample dilution.
Rats were given oral doses of BMS-869780, and levels of brain Aβ, βCTF, and αCTF were determined 24 hours later. For comparison, BMS-698861 was dosed in a separate experiment and samples were taken 5 hours later. […] (c) Rat brain βCTF was detected by western blotting of immunoprecipitates from samples of the same rat brains used for Aβ determinations. […] (e) and (f) quantification of western blots shown in (c) and (d), respectively, expressed relative to percent of average level of CTF in vehicle-treated rats. […]

Assay [1] deals with rat brain APP-CTFβ and APP-CTFα. In words: Immunoprecipitation and western blot of APP-CTFβ and APP-CTFα from rat brain. The format is in vivo. To be noted: 10 mg/kg, 5 hours. The procedure:
Rats were given oral doses of BMS-869780, and levels of brain Aβ, βCTF, and αCTF were determined 24 hours later. For comparison, BMS-698861 was dosed in a separate experiment and samples were taken 5 hours later. (a) Brain levels of Aβ1-42 (red), Aβ1-40 (green), Aβ1-38 (blue), and Aβ1-37 (purple) are shown as bars stacked upon one another. The total height of each bar therefore represents the sum of the four peptides. (b) Aβ1-42 (red—left Y axis) and Aβ1-x (grey—right Y axis). The same results for Aβ1-42 are plotted in both (a) and (b). (c) Rat brain βCTF was detected by western blotting of immunoprecipitates from samples of the same rat brains used for Aβ determinations. V, vehicle groups; results from rats dosed with 1.9, 22, 100, and 235 mg/kg of BMS-869780 and 10 mg/kg BMS-698861 (GSI) are indicated. (d) Western blots of immunoprecipitated αCTF from the same rat brain samples. (e) and (f) quantification of western blots shown in (c) and (d), respectively, expressed relative to percent of average level of CTF in vehicle-treated rats. Actual doses of BMS-869780 were determined by analysis of concentrations in left-over dosing solutions. […]
On the technique in general: A western blot detects proteins with antibodies after separation by electrophoresis.

The test system of assay [2] is brain Aβ1-42, brain Aβ1-40, plasma Aβ1-40. In words: Rat intraperitoneal dose response, brain and plasma Aβ 5 hours after dosing. Format: in vivo. The settings on record: 30 mg/kg, 5 hours. As for the experimental part:
as §1
Figure 7 BMS-869780 dose response and evaluation of residual Aβ levels in rat brain. (a) Groups of rats received intraperitoneal (IP) injections of vehicle or BMS-869780 at doses of 100, 30, 10, 3, 1, and 0.3 mg/kg. Additional rats were dosed with GSI BMS-698861 at 30 mg/kg as a positive control for Aβ-lowering. Group sizes were seven rats for each dose of BMS-869780 and 14 rats for vehicle and GSI dose groups. Brain and plasma were harvested 5 hours after dosing. Brain Aβ1-42 (green), brain Aβ1-40 (blue), brain Aβ1-x (black), and plasma Aβ1-40 (red) were determined. Values are expressed as % relative to vehicle group mean. Whiskers represent standard error. ⊗Aβ1-x was not determined in the groups dosed at 3, 1, and 0.3 mg/kg. (b) Brain Aβ1-40 was plotted against brain Aβ1-42 for each rat dosed with BMS-869780 (black ▼) and for each rat dosed with vehicle (grey ●). Values are expressed as % relative to vehicle group mean. Whiskers represent standard error. […]

The test system of a further assay is Notch/Aβ1-40. Also noted: method as in PMID 24900185. The settings on record: cited from earlier work.
In a further assay the test system is brain Aβ1-42. Also on record: method as in PMID 12897211, PMID 17650315. The settings on record: rodents; cited from earlier work.
Assay [3] deals with Aβ1-42 in cerebrospinal fluid. Also on record: method as in PMID 18090435. The settings on record: clinical trials, even at high doses; cited from earlier work.

For the compound `NC(=O)[C@@H](CC1CC1)N(Cc1ccc(-c2ncon2)cc1F)S(=O)(=O)c1ccc(Cl)cc1` [BMS-698861, reference compound], in the assay on rat brain Aβ, the “rat brain Aβ1-40, Aβ1-42, Aβ1-38, Aβ1-37 and Aβ1-x” value is given as “decreased levels of all the peptides”. For the same compound, the “rat brain APP-CTFβ and APP-CTFα levels” value in assay [1] is given as “increased several-fold”. In addition, in assay [2], the “Aβ lowering in all Aβ assays including Aβ1-x” value is “robust lowering in all Aβ assays”.

On to `NC(=O)[C@@H](CCC(F)(F)F)N(Cc1ccc(-c2ncon2)cc1F)S(=O)(=O)c1ccc(Cl)cc1` [avagacestat], for which the “Notch/Aβ1-40 IC50 ratio” value in the assay with Notch/Aβ1-40 is on record as 193.

Regarding `CC(C(=O)O)c1ccc(-c2ccccc2)c(F)c1` (stereo not drawn) [flurbiprofen], the “effect on brain Aβ1-42” value in the assay with brain Aβ1-42 is “lower brain Aβ1-42 in rodents”. For the same compound, the “effect on Aβ1-42 in cerebrospinal fluid” value in assay [3] is recorded as “no effect on Aβ1-42 in cerebrospinal fluid”.
